Assay [1] has as its system primary human monocytes. Kind of assay: In vitro inflammation inhibition, LPS-stimulated monocytes. The following applies: 1 hour pre-incubation with inhibitor (Table 2), IL4 + LPS 24 h. It is filed as cell-based. The method, then: (§1) For pharmacological inhibition experiments, the monocytes were pre-incubated for 1 hour with one of the inhibitors described in Table 2 before addition of the training stimulus.
In vitro inflammation inhibition: Monocytes were adhered to a flat-bottom cell culture plate for 1 hour and washed with warm PBS to remove any non-adherent cells and cell debris. […] Following the initial 24-hour stimulation, the supernatants were collected and stored at −20° C. until further analysis with ELISA for IL6 and TNF.
(§2) Cytokine and lactate measurements: TNF, IL6, and IL1Ra were measured in cell culture supernatants using duoset ELISA kits (R&D systems), according to the manufacturer's instructions. For lactate measurements, a fluorometric assay was used. 30 μl sample, medium control, or known standard was added to a black 96-well plate. Then, 30 μl reaction mix (PBS pH 7.4, horse radish peroxidase (0.2 U/ml), lactate oxidase (2 U/ml), Amplex red (100 μM; Fisher scientific)) was added and the reaction was incubated for 20 minutes in the dark at RT. Immediately thereafter, fluorescence was measured at 530/25 nm and 590/35 nm. Gen5 software (v3.03, BioTek) was used in conjunction with Microsoft Excel to calculate cytokine and lactate concentrations in the original samples.

In assay [2] the test system is primary human monocytes. Briefly: In vitro model of trained immunity in primary human monocytes. The format is cell-based. To be noted: 1 hour pre-incubation with inhibitor (Table 2) before IL4 training.
Source text: In vitro model of trained immunity in primary human monocytes: To induce trained immunity in primary human monocytes, a previously optimized and published method was used (Dominguez-Andres, J. et al. In vitro induction of trained immunity in adherent human monocytes. STAR Protoc 2, 100365, doi:10.1016/j.xpro.2021.100365 (2021); van Lier, D., Geven, C., Leijte, G. P. & Pickkers, P. Experimental human endotoxemia as a model of systemic inflammation. Biochimie 159, 99-106, doi:10.1016/j.biochi.2018.06.014 (2019)). Briefly: monocytes were adhered to a flat-bottom cell culture plate for 1 hour and washed with warm PBS to remove any non-adherent cells and cell debris. Then, they were stimulated (“trained”) for 24 hours with one of the stimuli detailed in Table 1, or medium only (“untrained” control).
as §1
Following the initial 24-hour stimulation, the cells were washed with warm PBS and warm cell culture medium was added. The monocytes were then allowed to rest and differentiate into macrophages for 5 days. On day 6, the induction of trained immunity was assessed. To this end, the cells were typically re-stimulated with LPS for an additional 24 hours to elicit cytokine production. The supernatants were collected and stored at −20° C. until further analysis, e.g. with ELISA for IL6 and TNF.
as §2

Assay [3] has as its target T1, IL4 receptor in human monocytes (Homo sapiens, UniProt P24394).
T1 construct: Human monocytes were isolated from a healthy donor's peripheral blood as described above; endogenous in cells; host or cells: primary human monocytes from a healthy donor's peripheral blood
T1 sequence (P24394 26-825): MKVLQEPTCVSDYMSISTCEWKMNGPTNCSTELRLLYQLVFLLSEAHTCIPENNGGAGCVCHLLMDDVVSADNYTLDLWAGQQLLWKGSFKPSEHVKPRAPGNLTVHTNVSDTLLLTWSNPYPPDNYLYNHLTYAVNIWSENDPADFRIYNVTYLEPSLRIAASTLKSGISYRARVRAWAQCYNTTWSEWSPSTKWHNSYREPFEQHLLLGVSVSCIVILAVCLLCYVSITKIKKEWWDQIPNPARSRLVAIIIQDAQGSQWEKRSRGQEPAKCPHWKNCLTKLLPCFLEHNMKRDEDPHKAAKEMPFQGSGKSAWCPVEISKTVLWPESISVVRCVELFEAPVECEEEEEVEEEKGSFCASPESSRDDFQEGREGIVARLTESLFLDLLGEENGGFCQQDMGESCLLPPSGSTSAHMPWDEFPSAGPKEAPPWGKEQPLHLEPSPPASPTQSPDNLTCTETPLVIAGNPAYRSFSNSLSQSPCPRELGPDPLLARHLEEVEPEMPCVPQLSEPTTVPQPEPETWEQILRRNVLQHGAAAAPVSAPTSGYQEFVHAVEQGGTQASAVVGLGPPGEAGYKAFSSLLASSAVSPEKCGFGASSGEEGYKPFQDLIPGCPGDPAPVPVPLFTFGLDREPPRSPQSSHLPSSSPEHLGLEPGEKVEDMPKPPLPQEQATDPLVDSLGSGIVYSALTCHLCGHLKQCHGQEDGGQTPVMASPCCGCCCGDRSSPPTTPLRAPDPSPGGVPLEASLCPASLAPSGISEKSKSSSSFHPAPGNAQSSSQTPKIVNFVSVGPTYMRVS
Briefly: Super-resolution fluorescence microscopy (dSTORM) of interactions with IL4 receptor. It is filed as cell-based. The method, then: 100,000 monocytes were seeded per well on a cell culture-treated chambered coverslip (μ-Slide 8-well, IBID). After 2 hours of incubation at 37° C. […] Subsequently, the cells were washed with PBS and fixed with 4% PFA for 20 minutes. […] The stained cells were stored in PBS at 4° C. For the direct stochastic optical reconstruction microscopy (dSTORM), the cells were immersed in GLOXY imaging buffer (40 μg/ml catalase, 0.5 mg/ml glucose oxidase, 5% glucose and 0.01 M cysteamine in PBS, pH 8.0) for a few minutes before and during the imaging. The acquisition was performed in Total Internal Reflection Fluorescence (TIRF) mode, using ONI Nanoimager (ONI, Oxford, UK). It is equipped with a 100×/1.4NA oil immersion objective, a sCMOS camera, and, in this study, 488 nm (200 mW) and 640 nm (1000 mW) lasers were used. 10000 frames were acquired with a 10 ms exposure time with the field of view of 50×80 μm. Raw data were processed using the ThunderSTORM software, yielding images with a spatial resolution of 10 nm.

The target of assay [4] is T2, CD8 receptor (Mus musculus, UniProt P01731+P10300).
T2 construct: Spleens were obtained from mice, cut into pieces, and strained through a 70 μm strainer; from tissue; host or cells: mouse spleen (freshly isolated splenocytes)
T2 sequence (P01731 28-247): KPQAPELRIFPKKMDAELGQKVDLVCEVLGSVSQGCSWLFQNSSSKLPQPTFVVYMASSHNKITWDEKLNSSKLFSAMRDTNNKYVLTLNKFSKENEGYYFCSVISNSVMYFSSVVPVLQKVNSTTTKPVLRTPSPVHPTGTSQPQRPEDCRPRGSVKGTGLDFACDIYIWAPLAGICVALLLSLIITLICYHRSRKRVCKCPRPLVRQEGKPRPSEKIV
T2 sequence (P10300 22-213): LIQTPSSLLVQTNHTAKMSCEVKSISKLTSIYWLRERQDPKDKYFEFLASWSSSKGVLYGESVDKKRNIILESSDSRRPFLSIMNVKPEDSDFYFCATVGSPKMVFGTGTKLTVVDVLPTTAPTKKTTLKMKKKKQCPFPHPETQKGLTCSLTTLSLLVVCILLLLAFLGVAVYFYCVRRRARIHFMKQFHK
Briefly: In vitro binding of VHHCD8-apoA1 in mice splenocytes. It is filed as cell-based. To be noted: 30 minutes at 4° C. As to the method:
In vitro binding of VHHCD8-apoA1 in mice splenocytes: Spleens were obtained from mice, cut into pieces, and strained through a 70 μm strainer (Corning) multiple times to obtain a splenocyte suspension. Cells were spun down at 1500 rpm for 10 minutes, the supernatant was removed and the cells were dissolved in 2 mL 1× red blood cell lysis buffer (Thermofisher). Suspension was incubated at room temperature for 5 minutes, 10 mL Roswell Park Memorial Institute (RPMI) medium (Thermofisher) was added, and cells were again spun down at 1500 rpm for 10 minutes. Cells were then redissolved in RPMI medium and plated in a 96 wells plate at 150.000 cells/well.
The proteins were labeled by adding sulfo-cyanine5-maleimide (Lumiprobe) in dimethyl sulfoxide (DMSO) at a 5× molar excess. This mixture was incubated at room temperature for 2 hours. Excess dye was removed using a PD minitrap G-25 desalting column (Cytiva). Fluorescently labeled aNPs were formulated by adding 6.4 μg Dil for discoidal formulations and 21 μg Dil for spherical formulations (see section “formulating nanoparticles” of Example 2). […] (for aNPs) after which cells were harvested, washed, and stained for CD3 and CD4 and measured on Cytoflex (Beckman Coulter Inc.). Flow cytometry data was analyzed using FlowJo software (BD).

In assay [5] the test system is HEK-Blue™ IL4/IL13 cells. Briefly: Human embryonic kidney 293 IL4 reporter cell assay (Example 2). The format is cell-based. The following applies: IL4Rα/STAT6-inducible reporter. The method, then: This cell line has a fully active STAT6 pathway and carries a STAT6-inducible SEAP reporter gene. […] The levels of secreted SEAP can be determined with QUANTI-Blue™ (Invivogen). 180 μL DMEM with 10% FBS and 1% Pen-Strep containing […] was added per well in a 96-well-plate. Subsequently, 20 μL stimulus or vehicle was added and cells were incubated for 20-24 hours at 37° C. Subsequently, 180 μL QUANTI-Blue was added per well to a separate 96-well-plate (flat-bottom) and 20 μL of the cell supernatant was added. The plate was incubated for 1-3 hours at 37° C. and absorbance at 640 nm was measured on a Tecan Spark plate reader to determine SEAP levels.

Assay [6] has as its target T3, CD8 receptor on mouse splenocytes (mouse, UniProt P01731 28-247; P10300 22-213).
T3 construct: whole, on cells
Kind of assay: flow cytometry, fluorescently labelled protein on mouse splenocytes; upper panel 'MFI APC (CD8+) of CD3+ T cells'.
Protocol: The proteins were labeled by adding sulfo-cyanine5-maleimide (Lumiprobe) in dimethyl sulfoxide (DMSO) at a 5× molar excess. This mixture was incubated at room temperature for 2 hours. Excess dye was removed using a PD minitrap G-25 desalting column (Cytiva). […] Fluorescently labeled fusion proteins or aNPs and controls were added to the wells and incubated for 30 minutes at 4° C. (for proteins) or 37° C. (for aNPs) after which cells were harvested, washed, and stained for CD3 and CD4 and measured on Cytoflex (Beckman Coulter Inc.). Flow cytometry data was analyzed using FlowJo software (BD).

Entries after “also recorded” stand apart in the source; their conditions may differ.

T3 sequence (P01731 28-247, chain 1 of 2): as the sequence (P01731 28-247) above
T3 sequence (P10300 22-213, chain 2 of 2): as the sequence (P10300 22-213) above

Turning to `NC(=O)c1cnc(NCCc2ccc(O)c(Cl)c2)nc1NCc1ccccc1` [AS1517499, reference compound], in assay [1], the “effect of inhibitor on IL4's inhibition of acute inflammation (TNF, IL6)” value was “partly restored cytokine production in acute inflammatory responses”. Also, the “effect of inhibitor on trained immunity induction by IL4 (TNF, IL6)” value in assay [2] was “did not affect trained immunity induction by IL4”.
The matching figures for `CCC(=O)N1CCN(c2ccc(-n3c(=O)ccc4cnc5ccc(-c6cnc7ccccc7c6)cc5c43)cc2C(F)(F)F)CC1` [torin-1, Torin-1, reference compound]: “did not abrogate the effect of IL4 on acute inflammation” and “diminished the trained immunity responses; also recorded: significantly blunted”.
For apoA1, the “binding to primary human monocytes (rim covering the cell surface)” value in assay [3] (Cy5-labeled, 2 h at 37° C.) is “confirmed”. For the same molecule, in assay [3] (zoomed in section of the membrane), the “association with IL4Rα on the cell surface (co-clusters)” value is “did not observe”. In addition, the “Mean Fluorescence Intensity (MFI) of fluorescently labeled protein” value in assay [4] is “did not show this dose dependent behavior”.
In the case of “apoA1-IL4: fusion protein of human apoA1 and human IL4 via flexible linker, 6his-tag and strep-tag (e.g. SEQ ID NO. 35)”, the “SEAP production by HEK-IL4 reporter cells” value in assay [5] was “prominently produced”.

B1: VHHCD8-apoA1 fusion protein (VHH)
VHH: QVQLQESGGGLVQAGGSLRLSCAASGFTFDDYAIGWFRQAPGKEREGVSCINNSDGSGYVADSVKGRFTISSDNAKNTVYLQMNSLKPEDTAVYYCAAAGDGGCYYGLDYWGKGTQVTVSS
modifications: labelled with sulfo-cyanine5-maleimide (the linker between apoA1 and VHHCD8 comprises a cysteine)
notes: Fusion of an anti-CD8 VHH with apoA1, expressed in ClearColi; molecular weight 43.3 kDa
Regarding B1, in assay [6], the half-maximal effective concentration (EC50 (read off the curve)) (in general, the concentration giving half of the maximal effect) is roughly 5 nM.
